Measurements as given in US8975249B2, “Heterocyclic compounds and uses thereof” (Celgene Avilomics Research, Inc., priority 2010, dated 2015).
Like-named read-outs stand apart in the source and are kept apart here.

Assays:
[1] = system: H1975 cells (EGFR L858R/T790M); assay: Cell proliferation (CellTiter Glo), H1975 cells
Description: (§7) Cells were plated in Growth Media supplemented with 5% FBS and 1% P/S at a density of 3,000 cells per well in 96 well tissue culture plates (Corning). […] Growth inhibition (GI50) values were determined by Graph Pad Prism.

WT EGFR (A431 cells) = WT EGFR (A431 cells) (Homo sapiens (Human), UniProt P00533); assay: Phospho-EGFR signaling immunoblot in A431 cells (WT EGFR); format: cell-based; settings: 1 hr treatment, EGF stimulated, phospho-EGFR (Y1068)
Description: (§1) A431 human epidermoid carcinoma, H1975 human NSCLC and HCC827 human NSCLC adenocarcinoma cells were obtained from the American Type Culture Center (Manassas, Va.). A431 cells were grown in DMEM (Invitrogen, Carlsbad, Calif.) supplemented with 10% FBS (HyClone, South Logan, Utah) and 1% Penicillin-Streptomycin (P/S, Lonza, Walkersville, Md.).
(§2) All primary antibodies were obtained from Cell Signaling (Danvers, Mass.) and used at 1:1000. Secondary antibodies were used at 1:10,000. Goat anti-mouse IgG IRDye 800CW antibody was obtained from LiCor Biosciences (Lincoln, Nebr.) and goat anti-rabbit IgG Alexa Fluor 680 was obtained from Invitrogen.
(§3) Cells were grown in 12-well plates (Corning, Coring, N.Y.) to 90% confluence and then incubated in low-serum (0.1% FBS) media for 16-18 hr. […] A431 cells were then stimulated with 50 ng/ml EGF (Peprotech, Rocky Hill, N.J.) for 15 min. After treatment, cell monolayers were washed with cold PBS (Invitrogen) and immediately lysed by scrapping into 60 uL cold Cell Extraction Buffer (Invitrogen) supplemented with Complete Protease inhibitors (Roche, Indianapolis, Ind.) and PhosphoSTOP (Roche) phosphatase inhibitors.
(§4) Phospho-protein signals were quantitated using Odyssey Infrared Imaging (Li-Cor Biosciences).
(§5) To assess phosphor-EGFR signaling, blots were probed with rabbit anti-Phospho-EGFR (Y1068) and mouse total anti-EGFR antibodies. Phospho-EGFR signal was normalized to total EGFR expression for each sample. […] Normalized data was fitted using a sigmoidal curve analysis program (Graph Pad Prism version 5) with variable Hill slope to determine the EC50 values.
(§6) The compound numbers recited in Table 4 correspond to the compound numbers in Table 1.

[2] = system: HCC827 cells (EGFR delE746-A750); assay: Cell proliferation (CellTiter Glo), HCC827 cells
Description: as §7

EGFR (WT) = EGFR (WT) (Homo sapiens (Human), UniProt P00533); assay: Omnia biochemical assay, EGFR-WT active enzyme; settings: [EGFR-WT]=5 nM, [ATP]=15 uM, 30 min pre-incubation
Description: Kinase reactions were started with the addition of 45 μL of the ATP/Tyr-Sox peptide substrate mix and monitored every 71 seconds for 60 minutes at λex360/λem485 in a Synergy^4 plate reader from BioTek (Winooski, Vt.).
The compound numbers correspond to the compound numbers in Table 1.

[3] = molecular target: EGFR double mutation L858R/T790M (H1975 cells) (Homo sapiens (Human), UniProt P00533, L858R/T790M); assay: Phospho-EGFR signaling immunoblot in H1975 cells; format: cell-based; settings: for EC50: H1975 cells, 1 hr treatment, phospho-EGFR (Y1068)
Description: as §1, §2, §3, §4, §5, §6

[4] = proliferation GI50 WT EGFR / H1975
[5] = proliferation GI50 WT EGFR / HCC827

## C=CC(=O)Nc1cccc(Oc2nc(Nc3ccc(N4CCN(C(=O)CO)CC4)cc3OC)ncc2Cl)c1 [Compound I-3, N-(3-(5-chloro-2-(4-(4-(2-hydroxyacetyl)piperazin-1-yl)-2-methoxyphenylamino)pyrimidin-4-yloxy)phenyl)acrylamide]
[1]; [4]
  Ratio WT/mutant (H1975): >5
WT EGFR (A431 cells)
  EC50: > 1 µM
[2]; [5]
  Ratio WT/mutant (HCC827): >45
EGFR (WT)
  IC50: 0.001 to 0.01 µM
[3]
  EC50: 0.5 to 1 µM
[3]; signaling EC50 WT EGFR / H1975
  Ratio WT/mutant (H1975): >5

## C=CC(=O)Nc1cccc(Oc2nc(Nc3ccc(N4CCN(C(C)=O)CC4)cc3OC)ncc2Cl)c1 [Compound I-9, N-(3-(2-(4-(4-acetylpiperazin-1-yl)-2-methoxyphenylamino)-5-chloropyrimidin-4-yloxy)phenyl)acrylamide]
[1]; [4]
  Ratio WT/mutant (H1975): >5
WT EGFR (A431 cells)
  EC50: > 1 µM
[2]; [5]
  Ratio WT/mutant (HCC827): >50
EGFR (WT)
  IC50: 0.001 to 0.01 µM

## C=CC(=O)Nc1cccc(Oc2nc(Nc3ccc(N4CCOCC4)cc3OC(F)F)ncc2C(F)(F)F)c1 [Compound I-13, N-(3-(2-(2-(difluoromethoxy)-4-morpholinophenylamino)-5-(trifluoromethyl)pyrimidin-4-yloxy)phenyl)acrylamide]
[1]; [4]
  Ratio WT/mutant (H1975): >10
[2]; [5]
  Ratio WT/mutant (HCC827): >50
EGFR (WT)
  IC50: 0.03 to 0.1 µM
[3]
  EC50: 0.01 to 0.1 µM

## C=CC(=O)Nc1cccc(Oc2nc(Nc3ccc(N4CCN(C(=O)OC(C)(C)C)CC4)cc3OCC)ncc2Cl)c1 [Compound I-18, tert-butyl 4-(4-(4-(3-acrylamidophenoxy)-5-chloropyrimidin-2-ylamino)-3-ethoxyphenyl)piperazine-1-carboxylate]
[1]; [4]
  Ratio WT/mutant (H1975): >1
[2]; [5]
  Ratio WT/mutant (HCC827): >5
EGFR (WT)
  IC50: > 1 µM

## C=CC(=O)Nc1cccc(Nc2nc(Nc3ccc(N4CCCN(C(=O)C(F)(F)F)CC4)cc3OC)ncc2C(F)(F)F)c1 [Compound I-19, N-(3-(2-(2-methoxy-4-(4-(2,2,2-trifluoroacetyl)-1,4-diazepan-1-yl)phenylamino)-5-(trifluoromethyl)pyrimidin-4-ylamino)phenyl)acrylamide]
[1]; [4]
  Ratio WT/mutant (H1975): >5
[2]; [5]
  Ratio WT/mutant (HCC827): >10
EGFR (WT)
  IC50: 0.1 to 0.3 µM

## C=CC(=O)Nc1cccc(Oc2nc(Nc3ccc(N4CCN(C(=O)OC)CC4)cc3OC)ncc2C(F)(F)F)c1 [Compound I-20, methyl 4-(4-(4-(3-acrylamidophenoxy)-5-(trifluoromethyl)pyrimidin-2-ylamino)-3-methoxyphenyl)piperazine-1-carboxylate]
[1]
  Ratio WT/mutant (H1975): >5
[2]
  Ratio WT/mutant (HCC827): >15
EGFR (WT)
  IC50: 0.01 to 0.03 µM

## C=CC(=O)Nc1cccc(Oc2nc(Nc3ccc(N4CCN(C(=O)CC(C)(C)C)CC4)cc3OC)ncc2Cl)c1 [Compound I-23, N-(3-(5-chloro-2-(4-(4-(3,3-dimethylbutanoyl)piperazin-1-yl)-2-methoxyphenylamino)pyrimidin-4-yloxy)phenyl)acrylamide]
[1]; [4]
  Ratio WT/mutant (H1975): >1
[2]; [5]
  Ratio WT/mutant (HCC827): >20
EGFR (WT)
  IC50: 0.1 to 0.3 µM

## C=CC(=O)Nc1cccc(Oc2nc(Nc3ccc(N4CCN(S(N)(=O)=O)CC4)cc3OC)ncc2C(F)(F)F)c1 [Compound I-27, N-(3-(2-(2-methoxy-4-(4-sulfamoylpiperazin-1-yl)phenylamino)-5-(trifluoromethyl)pyrimidin-4-yloxy)phenyl)acrylamide]
[1]; [4]
  Ratio WT/mutant (H1975): >1
WT EGFR (A431 cells)
  EC50: > 1 µM
[2]; [5]
  Ratio WT/mutant (HCC827): >10
EGFR (WT)
  IC50: 0.001 to 0.01 µM

## C=CC(=O)Nc1cccc(Nc2nc(Nc3ccc(N4CCN(C(=O)NC)CC4)cc3OC)ncc2C(F)(F)F)c1 [Compound I-28, 4-(4-(4-(3-acrylamidophenylamino)-5-(trifluoromethyl)pyrimidin-2-ylamino)-3-methoxyphenyl)-N-methylpiperazine-1-carboxamide]
[1]; [4]
  Ratio WT/mutant (H1975): >5
[2]; [5]
  Ratio WT/mutant (HCC827): >50
EGFR (WT)
  IC50: 0.001 to 0.01 µM

## C=CC(=O)Nc1cccc(Nc2nc(Nc3ccc(N4CCN(C(=O)OC)CC4)cc3OC)ncc2C(F)(F)F)c1 [Compound I-29, methyl 4-(4-(4-(3-acrylamidophenylamino)-5-(trifluoromethyl)pyrimidin-2-ylamino)-3-methoxyphenyl)piperazine-1-carboxylate]
[1]; [4]
  Ratio WT/mutant (H1975): >10
WT EGFR (A431 cells)
  EC50: > 1 µM
[2]; [5]
  Ratio WT/mutant (HCC827): >15
EGFR (WT)
  IC50: 0.01 to 0.03 µM

## C=CC(=O)Nc1cccc(Nc2nc(Nc3ccc(N4CCN(C(=O)CO)CC4)cc3OC(F)F)ncc2C(F)(F)F)c1 [Compound I-31, N-(3-(2-(2-(difluoromethoxy)-4-(4-(2-hydroxyacetyl)piperazin-1-yl)phenylamino)-5-(trifluoromethyl)pyrimidin-4-ylamino)phenyl)acrylamide]
EGFR (WT)
  IC50: < 0.001 µM

## C=CC(=O)Nc1cccc(Nc2nc(Nc3ccc(N4CCN(C(C)=O)CC4)cc3OC(F)F)ncc2C(F)(F)F)c1 [Compound I-32, N-(3-(2-(4-(4-acetylpiperazin-1-yl)-2-(difluoromethoxy)phenylamino)-5-(trifluoromethyl)pyrimidin-4-ylamino)phenyl)acrylamide]
EGFR (WT)
  IC50: < 0.001 µM

## C=CC(=O)Nc1cccc(Oc2nc(Nc3ccc(N4CCOCC4)cc3OC(F)F)ncc2Cl)c1 [Compound I-36, N-(3-(5-chloro-2-(2-(difluoromethoxy)-4-morpholinophenylamino)pyrimidin-4-yloxy)phenyl)acrylamide]
[1]; [4]
  Ratio WT/mutant (H1975): >25
[2]; [5]
  Ratio WT/mutant (HCC827): >50
EGFR (WT)
  IC50: 0.01 to 0.03 µM

## C=CC(=O)Nc1cccc(Oc2nc(Nc3ccc(N4CCCOCC4)cc3OC)ncc2Cl)c1 [Compound I-37, N-(3-(5-chloro-2-(2-methoxy-4-(1,4-oxazepan-4-yl)phenylamino)pyrimidin-4-yloxy)phenyl)acrylamide]
[1]; [4]
  Ratio WT/mutant (H1975): >1
[2]; [5]
  Ratio WT/mutant (HCC827): >10
EGFR (WT)
  IC50: 0.03 to 0.1 µM

## C=CC(=O)Nc1cccc(Nc2nc(Nc3ccc(N4CCCOCC4)cc3OC)ncc2C(F)(F)F)c1 [Compound I-38, N-(3-(2-(2-methoxy-4-(1,4-oxazepan-4-yl)phenylamino)-5-(trifluoromethyl)pyrimidin-4-ylamino)phenyl)acrylamide]
[1]; [4]
  Ratio WT/mutant (H1975): >1
[2]; [5]
  Ratio WT/mutant (HCC827): >5
EGFR (WT)
  IC50: 0.01 to 0.03 µM

## C=CC(=O)Nc1cccc(Oc2nc(Nc3ccc(N4CCCN(C(=O)OC(C)(C)C)CC4)cc3OC)ncc2C(F)(F)F)c1 [Compound I-39, tert-butyl 4-(4-(4-(3-acrylamidophenoxy)-5-(trifluoromethyl)pyrimidin-2-ylamino)-3-methoxyphenyl)-1,4-diazepane-1-carboxylate]
[1]; [4]
  Ratio WT/mutant (H1975): <1
[2]; [5]
  Ratio WT/mutant (HCC827): >1
EGFR (WT)
  IC50: > 1 µM

## C=CC(=O)Nc1cccc(Oc2nc(Nc3ccc(N4CCN(C(=O)OC(C)(C)C)CC4)cc3OC)ncc2C(F)(F)F)c1 [Compound I-42, tert-butyl 4-(4-(4-(3-acrylamidophenoxy)-5-(trifluoromethyl)pyrimidin-2-ylamino)-3-methoxyphenyl)piperazine-1-carboxylate]
EGFR (WT)
  IC50: 0.3 to 1 µM

## C=CC(=O)Nc1cccc(Oc2nc(Nc3ccc(N4CCCN(C(=O)OC(C)(C)C)CC4)cc3OC)ncc2Cl)c1 [Compound I-43, tert-butyl 4-(4-(4-(3-acrylamidophenoxy)-5-chloropyrimidin-2-ylamino)-3-methoxyphenyl)-1,4-diazepane-1-carboxylate]
EGFR (WT)
  IC50: 0.3 to 1 µM

## C=CC(=O)Nc1cccc(Oc2nc(Nc3ccc(N4CCN(C(=O)OC(C)(C)C)CC4)cc3OC(F)(F)F)ncc2Cl)c1 [Compound I-47, tert-butyl 4-(4-(4-(3-acrylamidophenoxy)-5-chloropyrimidin-2-ylamino)-3-(trifluoromethoxy)phenyl)piperazine-1-carboxylate]
EGFR (WT)
  IC50: > 1 µM

## C=CC(=O)Nc1cccc(Nc2nc(Nc3ccc(N4CCN(C(=O)OC(C)(C)C)[C@H](C(=O)OC)C4)cc3OC)ncc2C(F)(F)F)c1 [Compound I-50, (S)-1-tert-butyl 2-methyl 4-(4-(4-(3-acrylamidophenylamino)-5-(trifluoromethyl)pyrimidin-2-ylamino)-3-methoxyphenyl)piperazine-1,2-dicarboxylate]
[1]; [4]
  Ratio WT/mutant (H1975): >10
[2]; [5]
  Ratio WT/mutant (HCC827): >50
